Patent US10752588B2 (The Broad Institute, Inc., priority 2014, dated 2020)
In brackets after ≈: the same amount, converted by molar mass.

Experiments:
[1] = Plasma stability, human; format: in vitro ADME
[2] = Plasma stability, mouse
[3] = tested on: plasma protein; assay: Plasma protein binding, mouse; format: in vitro ADME; settings: plasma, read-out: Plasma Protein Binding % bound
[4] = Microsomal stability, mouse
[5] = Microsomal stability, human; format: in vitro ADME
[6] = biological target: T1, human D2R/β-arrestin (Homo sapiens (Human), UniProt P14416); assay: β-Arrestin agonist assay (PathHunter); format: cell-based; settings: CHO-K1 cell line expressing human D2R/β-arrestin
Outline: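 Readout follows addition of Buffer:Emerald II:Galactor-Star reagent (19:5:1) to agonist-treated plates, measured as luminescence or fluorescence.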

[7] = Plasma stability, rat; format: in vitro ADME
[8] = Solubility in PBS; format: physicochemical; settings: aqueous buffer
[9] = biological target: T1, human D2R/β-arrestin; assay: cell-based; settings: β-arrestin Antagonist, CHO-K1 cell line expressing human D2R/β-arrestin; quinpirole used as agonist
Experimental: The detection reagents are then added, and the read-out is detected.
Cells were prepared for assays by growing cultures for up to 2 weeks (from about 6-20 passages). A vial of frozen cells was thawed in a water bath held at 37° C. The cells were then transferred into a 50 ml tube with 10 ml growth media. The vial was rinsed with growth media and the contents transferred to the 50 ml tube. The 50 ml tube was centrifuged at 1200 rpm for 5 minutes at room temperature. […] When the cells reached about 90% confluence (approximately 3 days between passages), the cells were passaged and used for either the agonist or antagonist assays as described below.
The cells were prepared for β-arrestin assays as described above. The assays were performed using a PathHunter® β-Arrestin Detecting Kit (DiscoveRX). The cells were grown on 225 mm dishes, then washed once with 1×PBS (Cellgro), followed by digestion with 2.5 ml 1× Detachment reagent (DRX 92-0009) for approximately 2 minutes.

[10] = biological target: T1, human D2R/β-arrestin; assay: Gi/cAMP agonist assay (Lance Ultra cAMP, Forskolin); format: cell-based; settings: CHO-K1 cell line expressing human D2R/β-arrestin
Outline: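 Read-out was Lance Ultra competitive TR-FRET (Eu-cAMP tracer plus ULight-anti-cAMP) following forskolin-induced cAMP production. Before forskolin stimulation, compounds were pin-transferred onto the seeded cells for 10 min at 37 °C.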

[11] = Microsomal stability, rat; format: in vitro ADME
[12] = tested on: plasma protein; assay: Plasma protein binding, human; format: in vitro ADME; settings: plasma, read-out: Plasma Protein Binding % bound
[13] = tested on: plasma protein; assay: Plasma protein binding, rat; format: in vitro ADME; settings: plasma, read-out: Plasma Protein Binding % bound
[14] = biological target: T1, human D2R/β-arrestin; assay: cell-based; settings: cAMP Antagonist, CHO-K1 cell line expressing human D2R/β-arrestin; quinpirole used as agonist
[15] = biological target: D2 (Homo sapiens (Human), UniProt P14416); assay: D2 radioligand binding assay
Sequence of D2 (P14416 whole entry): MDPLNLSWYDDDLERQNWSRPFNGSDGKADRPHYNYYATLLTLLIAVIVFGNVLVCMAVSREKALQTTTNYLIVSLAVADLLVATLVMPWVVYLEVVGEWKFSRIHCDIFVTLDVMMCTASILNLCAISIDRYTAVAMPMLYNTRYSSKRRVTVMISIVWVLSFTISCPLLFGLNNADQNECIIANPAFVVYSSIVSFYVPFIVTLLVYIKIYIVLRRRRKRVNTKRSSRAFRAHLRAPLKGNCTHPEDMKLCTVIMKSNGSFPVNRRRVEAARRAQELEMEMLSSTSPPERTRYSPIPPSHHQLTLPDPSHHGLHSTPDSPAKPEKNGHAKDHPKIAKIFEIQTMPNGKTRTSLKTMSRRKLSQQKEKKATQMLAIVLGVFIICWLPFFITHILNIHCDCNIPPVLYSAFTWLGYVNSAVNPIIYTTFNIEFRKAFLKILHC

T1 sequence (P14416 whole entry): as above

Row | Structure (SMILES) | Plasma Stability: % remaining after 5 hours [1] [%] | Plasma Stability: % remaining after 5 hours [2] [%] | fraction unbound [3] | Microsomal Stability: % remaining after 60 minutes [4] [%] | Microsomal Stability: % remaining after 60 minutes [5] [%] | EC50 [6] [nM] | Plasma Stability: % remaining after 5 hours [7] [%] | solubility [8] [µM] | IC50 [9] [nM] | EC50 [10] [nM] | Microsomal Stability: % remaining after 60 minutes [11] [%] | fraction unbound [12] | fraction unbound [13] | IC50 [14] [nM] | Ki [15] [nM]
1 | O=C(NC(c1ccc(Cl)cc1)c1ccccn1)C1CCN(CCOc2ccccc2F)CC1 (stereo not shown) [Compound 3] | 92 | 100 | 0.015 | 22 | 64 | > 30000 | 86 | 43 (≈ 20.1 µg/mL) | 100 to 1000 | < 100 | 44 | 0.246 | 0.315 | > 30000 | –
2 | O=C(NC(c1ccc(Cl)cc1)c1ccccn1)C1CCN(CCOc2ccc(F)cc2)CC1 (stereo not shown) [Compound 5] | 91.2 | 90.5 | 0.021 | 42 | 71 | > 30000 | 95.2 | 311 (≈ 146 µg/mL) | 1000 to 10000 | 10000 to 30000 | 84 | 0.195 | 0.142 | 1000 to 10000 | –
3 | O=C(NC(c1ccc(Cl)cc1)c1ccccn1)C1CCN(CCOc2ccccc2C(F)(F)F)CC1 (stereo not shown) [Compound 6] | 99 | 98.8 | 0.008 | 22 | 52 | > 30000 | 69.3 | 0.7 (≈ 0.363 µg/mL) | < 100 | > 30000 | 32 | 0.007 | – | < 100 | 100 to 1000
4 | O=C(NC(c1ccc(Cl)cc1)c1ccccn1)C1CCN(CCOc2cccc(C(F)(F)F)c2)CC1 (stereo not shown) [Compound 7, N-((4-chlorophenyl)(pyridin-2-yl)methyl)-1-(2-(3-(trifluoromethyl)phenoxy)ethyl) piperidine-4-carboxamide] | 91.5 | 100 | 0.004 | 44 | 87 | > 30000 | 93.5 | 0.7 (≈ 0.363 µg/mL) | 100 to 1000 | 100 to 1000 | 76 | – | – | 100 to 1000 | –
5 | O=C(NC(c1ccc(Cl)cc1)c1ccccn1)C1CCN(CCOc2cc(F)ccc2F)CC1 (stereo not shown) [Compound 14] | 96.7 | 100 | 0.015 | 11 | 49 | > 30000 | 78.2 | 36.1 (≈ 17.5 µg/mL) | 100 to 1000 | < 100 | 44 | 0.009 | 0.006 | > 30000 | –
6 | O=C(NC(c1cccc(Cl)c1)c1ccccn1)C1CCN(CCOc2ccccc2)CC1 (stereo not shown) [Compound 23] | 100 | 100 | 0.03 | 41 | 76 | > 30000 | 96 | 225 (≈ 101 µg/mL) | 100 to 1000 | > 30000 | 77 | 0.023 | 0.033 | 100 to 1000 | –
7 | O=C(NC(c1cccc(F)c1)c1ccccn1)C1CCN(CCOc2ccccc2)CC1 (stereo not shown) [Compound 26] | 100 | 92 | 0.057 | 66 | 84 | > 30000 | 99 | 460 (≈ 199 µg/mL) | 1000 to 10000 | > 30000 | 96 | 0.062 | 0.046 | 100 to 1000 | –
8 | O=C(NC(c1ccc(C(F)(F)F)cc1)c1ccccn1)C1CCN(CCOc2ccccc2)CC1 (stereo not shown) [Compound 31, 1-(2-phenoxyethyl)-N-(pyridin-2-yl(4-(trifluoromethyl)phenyl)methyl) piperidine-4-carboxamide] | 94.2 | 84.5 | 0.026 | 57 | 53 | > 30000 | 100 | 27 (≈ 13.1 µg/mL) | 1000 to 10000 | 100 to 1000 | 55 | 0.023 | 0.014 | > 30000 | –
9 | O=C(NC(c1cccc(C(F)(F)F)c1)c1ccccn1)C1CCN(CCOc2ccccc2)CC1 (stereo not shown) [Compound 32, 1-(2-phenoxyethyl)-N-(pyridin-2-yl(3-(trifluoromethyl)phenyl)methyl) piperidine-4-carboxamide] | 91 | 74 | 0.031 | 37 | 61 | > 30000 | 98 | 151 (≈ 73 µg/mL) | 100 to 1000 | 10000 to 30000 | 46 | 0.03 | 0.023 | 100 to 1000 | –
10 | O=C(NC(c1ccccc1)c1ccc(Cl)cc1)C1CCN(CCOc2ccccc2)CC1 (stereo not shown) [Compound 39] | 100 | 93 | 0.02 | 65 | 49 | > 30000 | 86 | 3.3 (≈ 1.48 µg/mL) | 100 to 1000 | > 30000 | 55 | 0.021 | 0.046 | 100 to 1000 | –
11 | O=C(NC(c1ccc(Cl)cc1)c1cccc(F)c1)C1CCN(CCOc2ccccc2)CC1 (stereo not shown) [Compound 41] | 100 | 100 | 0.006 | 64 | 45 | > 30000 | 96 | < 0.1 | 1000 to 10000 | > 30000 | 78 | 0.007 | 0.014 | 100 to 1000 | –
12 | O=C(NC(c1ccccc1)c1ccc(F)cc1)C1CCN(CCOc2ccccc2)CC1 (stereo not shown) [Compound 45] | 95 | 91 | 0.015 | 62 | 56 | > 30000 | 85 | 6.5 (≈ 2.81 µg/mL) | < 100 | > 30000 | 59 | 0.017 | 0.012 | < 100 | –
